Laboratory results: ChEMBL document CHEMBL3885881, “DrugMatrix”

Species: Rattus norvegicus
Experiment: DrugMatrix - Regimen: Daily Repeat
Assay type: toxicity, organism-based, Sprague-Dawley
Set-up: regimen Daily Repeat, gender Male, age 6-8 weeks
Settings: in vivo, po, route oral GAVAGE, vehicle .5 % CMC; for ABSOLUTE BASOPHIL / ABSOLUTE EOSINOPHIL / ABSOLUTE LYMPHOCYTE / ABSOLUTE MONOCYTE / ABSOLUTE SEGMENTED NEUTROPHIL / BASOPHIL / EOSINOPHIL / ERYTHROCYTE COUNT / HEMATOCRIT / HEMOGLOBIN / LEUKOCYTE COUNT / LYMPHOCYTE / MEAN CORPUSCULAR HEMOGLOBIN / MEAN CORPUSCULAR HEMOGLOBIN CONCENTRATION / MEAN CORPUSCULAR VOLUME / MONOCYTE / NEUTROPHIL / NUCLEATED RED BLOOD CELLS / PLATELET COUNT: tissue Blood; for ALANINE AMINOTRANSFERASE / ALBUMIN / ALKALINE PHOSPHATASE / ASPARTATE AMINOTRANSFERASE / BLOOD UREA NITROGEN / CARBON DIOXIDE / CHLORIDE / CHOLESTEROL / CREATINE PHOSPHOKINASE / CREATININE / GLUCOSE / LACTATE DEHYDROGENASE / LIPASE / PHOSPHORUS / POTASSIUM / SODIUM / TOTAL BILIRUBIN / TOTAL PROTEIN / URIC ACID: tissue Plasma
[1] = 0 mg/kg, 72 h, dose level Control, time 3 day
[2] = 0 mg/kg, 120 h, dose level Control, time 5 day
[3] = 50 mg/kg, 72 h, dose level Low, time 3 day

CC(/C=C1\SC(=S)N(CC(=O)O)C1=O)=C\c1ccccc1 was tested, and the “ABSOLUTE BASOPHIL” value [1] was 0 CELLS/uL, the “ABSOLUTE EOSINOPHIL” value [1] was 0 CELLS/uL and the “ABSOLUTE LYMPHOCYTE” value [1] was 12191.17 CELLS/uL. The “ABSOLUTE MONOCYTE” value [1] was 183.17 CELLS/uL, the “ABSOLUTE SEGMENTED NEUTROPHIL” value [1] was 1192.33 CELLS/uL and the BASOPHIL [1] was 0%. The EOSINOPHIL [1] was 0%, the “ERYTHROCYTE COUNT” value [1] was 5.51 x10E6/uL and the HEMATOCRIT [1] was 35.45%. For the same compound, the HEMOGLOBIN [1] was 13.82 G/DL, the “LEUKOCYTE COUNT” value [1] was 13.57 x10E3/uL and the LYMPHOCYTE [1] was 89.83%. For the same compound, the “MEAN CORPUSCULAR HEMOGLOBIN” value [1] was 25.1 pg, the “MEAN CORPUSCULAR HEMOGLOBIN CONCENTRATION” value [1] was 38.98 G/DL and the “MEAN CORPUSCULAR VOLUME” value [1] was 64.42 fL. For the same compound, the MONOCYTE [1] was 1.33%, the NEUTROPHIL [1] was 8.83% and the “NUCLEATED RED BLOOD CELLS” value [1] was 0 /100WBC. The “PLATELET COUNT” value [1] was 1118.17 x10E3/uL, the “ALANINE AMINOTRANSFERASE” value [1] was 55 u/L and the ALBUMIN [1] was 4.15 G/DL. For the same compound, the “ALKALINE PHOSPHATASE” value [1] was 449.5 u/L, the “ASPARTATE AMINOTRANSFERASE” value [1] was 112.83 u/L and the “BLOOD UREA NITROGEN” value [1] was 17.33 mg/dL. The “CARBON DIOXIDE” value [1] was 29.5 mmol/L, the CHLORIDE [1] was 101 MEQ/L and the CHOLESTEROL [1] was 70 mg/dL. The “CREATINE PHOSPHOKINASE” value [1] was 1325.83 u/L, the CREATININE [1] was 0.18 mg/dL and the GLUCOSE [1] was 171.5 mg/dL. For the same compound, the “LACTATE DEHYDROGENASE” value [1] was 386 u/L, the LIPASE [1] was 10 u/L and the PHOSPHORUS [1] was 11.57 mg/dL. The POTASSIUM [1] was 6.21 MEQ/L, the SODIUM [1] was 141.65 MEQ/L and the “TOTAL BILIRUBIN” value [1] was 0.15 mg/dL. The “TOTAL PROTEIN” value [1] was 5.75 G/DL, the “URIC ACID” value [1] was 1.28 mg/dL and the “ABSOLUTE BASOPHIL” value [2] was 0 CELLS/uL. The “ABSOLUTE EOSINOPHIL” value [2] was 138.17 CELLS/uL, the “ABSOLUTE LYMPHOCYTE” value [2] was 13283.17 CELLS/uL and the “ABSOLUTE MONOCYTE” value [2] was 303.83 CELLS/uL. The “ABSOLUTE SEGMENTED NEUTROPHIL” value [2] was 1308.17 CELLS/uL, the BASOPHIL [2] was 0% and the EOSINOPHIL [2] was 1%. The “ERYTHROCYTE COUNT” value [2] was 5.32 x10E6/uL, the HEMATOCRIT [2] was 33.8% and the HEMOGLOBIN [2] was 13.63 G/DL. The “LEUKOCYTE COUNT” value [2] was 15.03 x10E3/uL, the LYMPHOCYTE [2] was 88.33% and the “MEAN CORPUSCULAR HEMOGLOBIN” value [2] was 25.68 pg. For the same compound, the “MEAN CORPUSCULAR HEMOGLOBIN CONCENTRATION” value [2] was 40.35 G/DL, the “MEAN CORPUSCULAR VOLUME” value [2] was 63.67 fL and the MONOCYTE [2] was 1.83%. The NEUTROPHIL [2] was 8.83%, the “NUCLEATED RED BLOOD CELLS” value [2] was 0 /100WBC and the “PLATELET COUNT” value [2] was 1097.5 x10E3/uL. The “ALANINE AMINOTRANSFERASE” value [2] was 54.5 u/L, the ALBUMIN [2] was 4.27 G/DL and the “ALKALINE PHOSPHATASE” value [2] was 337 u/L. For the same compound, the “ASPARTATE AMINOTRANSFERASE” value [2] was 94.67 u/L, the “BLOOD UREA NITROGEN” value [2] was 17 mg/dL and the “CARBON DIOXIDE” value [2] was 28.33 mmol/L. For the same compound, the CHLORIDE [2] was 101.5 MEQ/L, the CHOLESTEROL [2] was 71.33 mg/dL and the “CREATINE PHOSPHOKINASE” value [2] was 628.17 u/L. The CREATININE [2] was 0.19 mg/dL, the GLUCOSE [2] was 177.83 mg/dL and the “LACTATE DEHYDROGENASE” value [2] was 500.5 u/L. It also gave an LIPASE [2] of 9.5 u/L, a PHOSPHORUS [2] of 12.3 mg/dL and a POTASSIUM [2] of 5.63 MEQ/L. For the same compound, the SODIUM [2] was 143.03 MEQ/L, the “TOTAL BILIRUBIN” value [2] was 0.2 mg/dL and the “TOTAL PROTEIN” value [2] was 6.02 G/DL. For the same compound, the “URIC ACID” value [2] was 1.5 mg/dL, the “ABSOLUTE BASOPHIL” value [3] was 0 CELLS/uL and the “ABSOLUTE EOSINOPHIL” value [3] was 0 CELLS/uL. For the same compound, the “ABSOLUTE LYMPHOCYTE” value [3] was 10745.33 CELLS/uL, the “ABSOLUTE MONOCYTE” value [3] was 122.33 CELLS/uL and the “ABSOLUTE SEGMENTED NEUTROPHIL” value [3] was 899 CELLS/uL. The BASOPHIL [3] was 0%, the EOSINOPHIL [3] was 0% and the “ERYTHROCYTE COUNT” value [3] was 5.12 x10E6/uL. The HEMATOCRIT [3] was 32.47%, the HEMOGLOBIN [3] was 13.07 G/DL and the “LEUKOCYTE COUNT” value [3] was 11.77 x10E3/uL. The LYMPHOCYTE [3] was 91.33%, the “MEAN CORPUSCULAR HEMOGLOBIN” value [3] was 25.57 pg and the “MEAN CORPUSCULAR HEMOGLOBIN CONCENTRATION” value [3] was 40.23 G/DL. The “MEAN CORPUSCULAR VOLUME” value [3] was 63.67 fL, the MONOCYTE [3] was 1% and the NEUTROPHIL [3] was 7.67%. For the same compound, the “NUCLEATED RED BLOOD CELLS” value [3] was 0.33 /100WBC, the “PLATELET COUNT” value [3] was 1123 x10E3/uL and the “ALANINE AMINOTRANSFERASE” value [3] was 53.67 u/L. The ALBUMIN [3] was 4.27 G/DL, the “ALKALINE PHOSPHATASE” value [3] was 336 u/L and the “ASPARTATE AMINOTRANSFERASE” value [3] was 85.33 u/L. For the same compound, the “BLOOD UREA NITROGEN” value [3] was 16 mg/dL, the “CARBON DIOXIDE” value [3] was 27.33 mmol/L and the CHLORIDE [3] was 101.67 MEQ/L. For the same compound, the CHOLESTEROL [3] was 75.67 mg/dL, the “CREATINE PHOSPHOKINASE” value [3] was 291.33 u/L and the CREATININE [3] was 0.17 mg/dL. For the same compound, the GLUCOSE [3] was 165.67 mg/dL, the “LACTATE DEHYDROGENASE” value [3] was 165.67 u/L and the LIPASE [3] was 9.33 u/L. For the same compound, the PHOSPHORUS [3] was 12.33 mg/dL, the POTASSIUM [3] was 6.32 MEQ/L and the SODIUM [3] was 143.7 MEQ/L. For the same compound, the “TOTAL BILIRUBIN” value [3] was 0.1 mg/dL, the “TOTAL PROTEIN” value [3] was 5.77 G/DL and the “URIC ACID” value [3] was 2.2 mg/dL.
